The values below are quoted from earlier work in patent US5786344A, “Camptothecin drug combinations and methods with reduced side effects” (priority 1995, dated 1998).

One data set deals with p-glycoprotein. Conditions: cited from earlier work.
For data set [1] the following is noted: cited from earlier work.
The conditions of data set [2]: cited from earlier work; for duration of action: intramuscular or subcutaneous.
Where [3] appears, read: plasma/serum/terminal or elimination half-life.

Entries after “also recorded” stand apart in the source; their conditions may differ. Counter-ions that a name gives are not always drawn. Like-named read-outs stand apart in the source and are kept apart here.

Regarding `C=C[C@@]1(C)CC(=O)[C@@H]2[C@@]3(C)CCCC(C)(C)[C@@H]3[C@H](O)[C@H](OC(C)=O)[C@@]2(C)O1` [1,9-dideoxyforskolina], the “inhibition of / interaction with p-glycoprotein” value in the data set with p-glycoprotein is reported as “p-glycoprotein inhibitors”. For the molecule `CCN1CCN(C(=O)N[C@@H](C(=O)N[C@@H]2C(=O)N3C(C(=O)O)=C(CSc4nnnn4C)CS[C@H]23)c2ccc(O)cc2)C(=O)C1=O` [Cefoperazone], the peak plasma concentration in data set [1] (human, in vivo, im) was 80 to 120 µg/mL. Further, in data set [1] (human, in vivo, iv), the peak plasma concentration is 250 to 357 µg/mL. Further, in data set [1] (human, in vivo), the biliary secretion is given as 70% and the urinary excretion was 30%. In addition, in data set [1] (oral), the “oral absorption” value is “absorbed poorly”. As for `CCN(CC)CCCC(C)Nc1ccnc2cc(Cl)ccc12` (centres unmarked) [Chloroquine phosphate, 1,4-Pentanediamine, N^4-(7-chloro-4-quinolinyl)-N^1, N^1-diethyl-, phosphate (1:2)], the “oral absorption” value in data set [1] (oral) is listed as “absorbed almost completely”.

With `CN(C)CCCN1c2ccccc2Sc2ccc(Cl)cc21` [Chlorpromazine hydrochloride, 10H-Phenothiazine-10-propanamine, 2-chloro-N,N-dimethyl-, mono hydrochloride], the volume of distribution in data set [1] (human, in vivo, im) is 21.8 L/kg. Also, in data set [1] (human, in vivo, po), the “bioavailability / dose reaching the systemic circulation” value was 32% and the volume of distribution is 80.6 L/kg.

Regarding `O=C1CN=C(c2ccccc2Cl)c2cc([N+](=O)[O-])ccc2N1` [Clonazepam, 2H-1,4-Benzodiazepin-2-one, 5-(2-chlorophenyl)-1,3-dihydro-7-nitro-], the therapeutic plasma levels in data set [1] (human, in vivo) was 20 to 80 ng/mL. Regarding `OCCN(CCO)c1nc(N2CCCCC2)c2nc(N(CCO)CCO)nc(N3CCCCC3)c2n1` [Dipyridamole, [2,6-Bis(diethanolamino)-4,9-dipiperidinopyrimido-(5,4-d)pyrimidine], the clinical toxicity result in data set [2] (human, in vivo) was “quite nontoxic”. In the case of `CCCCCCCCCC(=O)OCCN1CCN(CCCN2c3ccccc3Sc3ccc(C(F)(F)F)cc32)CC1` [Fluphenazine decanoate], the duration of action result in data set [2] was “about 4 wk”. For `CCCCCCC(=O)OCCN1CCN(CCCN2c3ccccc3Sc3ccc(C(F)(F)F)cc32)CC1` [Fluphenazine enanthate], the duration of action in data set [2] (listed as enanthate salt) is 2 wk. Turning to `CCOC(=O)N(C)[C@@H]1C[C@H]2O[C@@](C)([C@@H]1OC)n1c3ccccc3c3c4c(c5c6ccccc6n2c5c31)C(=O)NC4=O` [NA-382, N-ethoxycarbonyl-7-oxo-staurosporine], the “inhibition of / interaction with p-glycoprotein” value in the data set with p-glycoprotein is on record as “inhibiting drug binding to p-glycoprotein”. `CCC1(c2ccccc2)C(=O)NC(=O)NC1=O` [Phenobarbital, 2,4,6(1H,3H,5H)-Pyrimidinetrione, 5-ethyl-5-phenyl-]: the oral absorption result in data set [1] (% of oral dose) is listed as “Approximately 80%”. For the same molecule, the therapeutic plasma levels in data set [1] (human, in vivo) is 10000 to 30000 ng/mL. Also, the “time to peak plasma level” value in data set [1] (human, plasma) is 16 to 18 h. In the case of `O=C1NC(=O)C(c2ccccc2)(c2ccccc2)N1` [Phenytoin, 2,4-Imidazolidinedione, 5,5-diphenyl-], the lethal plasma levels in data set [1] (human, in vivo) was around 100 µg/mL. Turning to `C=CC1CN2CCC1CC2C(O)c1ccnc2ccc(OC)cc12` (centres unmarked) [Quinidine polygalacturonate], in data set [2] (human, in vivo), the gastrointestinal side effects result is “lesser incidence and severity of gastrointestinal side effects”. On to `CO[C@H]1/C=C/O[C@@]2(C)Oc3c(C)c(O)c4c(O)c(c(/C=N/N5CCN(C)CC5)c(O)c4c3C2=O)NC(=O)/C(C)=C\C=C\[C@H](C)[C@H](O)[C@@H](C)[C@@H](O)[C@@H](C)[C@H](OC(C)=O)[C@@H]1C` [Rifampin, Rifamycin, 3-[[(4-methyl-1-piperazinyl)imino]methyl]-], for which the “duration of effective levels” value in data set [1] (human, in vivo) was 8 to 10 h.

With `CC(=O)O[C@@]12CO[C@@H]1C[C@H](O)[C@@]1(C)C(=O)[C@H](O)C3=C(C)[C@@H](OC(=O)[C@H](O)[C@@H](NC(=O)OC(C)(C)C)c4ccccc4)C[C@@](O)([C@@H](OC(=O)c4ccccc4)[C@H]21)C3(C)C` [Taxotere], the “inhibition of / interaction with p-glycoprotein” value in the data set with p-glycoprotein is “p-glycoprotein inhibitors”. Take `CS(=O)(=O)O.C[C@]12C=CC(=O)C=C1CC[C@@H]1C2=CC[C@]2(C)[C@@H](C(=O)CN3CCN(c4cc(N5CCCC5)nc(N5CCCC5)n4)CC3)CC[C@@H]12` [U-74389F]: the “inhibition of / interaction with p-glycoprotein” value with p-glycoprotein is reported as “potent inhibitors”. For the molecule `COc1ccc(CCN(C)CCCC(C#N)(c2ccc(OC)c(OC)c2)C(C)C)cc1OC` (stereo not drawn) [Verapamil hydrochloride, benzeneacetonitrile, α-[3-[[2-(3,4-dimethoxyphenyl)ethyl]-methylamino]propyl]-3,4-dime thoxy-a-(l-methylethyl)-, hydrochloride], in data set [1] (% of dose), the “excreted unchanged (urine)” value is listed as “less than 5%” and the fecal excretion is 16%. Also, the oral absorption result in data set [1] (% of oral dose) is given as “more than 90%”. With `COc1ccc2cc1Oc1ccc(cc1)C[C@H]1c3c(cc4c(c3Oc3cc5c(cc3OC)CCN(C)[C@@H]5C2)OCO4)CCN1C` [cepharanthine], the “inhibition of photoaffinity labeling of p-glycoprotein” value with p-glycoprotein (photolabeling) is “showed inhibition”. With `C=C1[C@@H](C)[C@H]2[C@H](Cc3ccccc3)NC(=O)[C@]23OC(=O)/C=C/[C@H](O)CCC[C@@H](C)C/C=C/[C@H]3[C@@H]1O` [cytochalasin B], the “inhibition of / interaction with p-glycoprotein” value in the data set with p-glycoprotein is recorded as “inhibiting p-glycoprotein”. `COc1cccc2c1C(=O)c1c(O)c3c(c(O)c1C2=O)C[C@@](O)(C(C)O)C[C@@H]3O[C@H]1C[C@H](N)[C@H](O)[C@H](C)O1` (some centres unmarked) [daunorubicinol]: the half-life result in data set [1] (setting [3]) was “about 27 hr”. For `COc1cccc2c1C(=O)c1c(O)c3c(c(O)c1C2=O)C[C@@](O)(C(=O)CO)C[C@@H]3O[C@H]1C[C@H](N)[C@H](O)[C@H](C)O1` [doxorubicin, 5,12-Naphthacenedione, (8s-cis)-10-[(3-amino-2,3,6-trideoxy-α-L-lyxo-hexopyranosyl)oxy)-7,8,9,10-tetrahydro-6,8,11-trihydroxy-8-(hydroxyacetyl)-1-methoxy-hydrochloride], in data set [1] (human, in vivo, po), the “oral absorption” value is listed as “absorbed poorly”. In data set [1] (setting [3]), the half-life entry was “about 30 hr”. The “inhibition of / interaction with p-glycoprotein” value in the data set on p-glycoprotein is recorded as “interacted with p-glycoprotein”. As for `COc1cc([C@@H]2c3cc4c(cc3[C@@H](O[C@@H]3O[C@@H]5CO[C@@H](C)O[C@H]5[C@H](O)[C@H]3O)[C@H]3COC(=O)[C@H]23)OCO4)cc(OC)c1O` [etoposide], in data set [1] (human, in vivo, iv), the peak plasma concentration was 30 µg/mL. The oral absorption result in data set [1] (human, in vivo, po) is reported as “about 50%”. In data set [1] (human, in vivo), the “concentration in CSF relative to plasma” value is recorded as 1-10%, the “excreted unchanged (urine)” value was “Approximately 40%” and the half-life result is “about 8 hours”. The “inhibition of / interaction with p-glycoprotein” value in the data set with p-glycoprotein is on record as “interacted with p-glycoprotein”. Regarding `CC(=O)[C@H]1CC[C@H]2[C@@H]3CC=C4C[C@@H](O)CC[C@]4(C)[C@H]3CC[C@]12C` [pregnenolone], in the data set with p-glycoprotein, the “inhibition of / interaction with p-glycoprotein” value is recorded as “inhibited the transporting activity of p-glycoprotein”.

As for `CC(=O)[C@H]1CC[C@H]2[C@@H]3CCC4=CC(=O)CC[C@]4(C)[C@H]3CC[C@]12C` [progesterone], the “inhibition of / interaction with p-glycoprotein” value with p-glycoprotein is listed as “inhibited the transporting activity of p-glycoprotein; also recorded: inhibits their drug efflux”. As for `COc1ccc(C[C@H](N)C(=O)N[C@H]2[C@@H](O)[C@H](n3cnc4c(N(C)C)ncnc43)O[C@@H]2CO)cc1` [puromycin], the “inhibition of / interaction with p-glycoprotein” value in the data set on p-glycoprotein is on record as “interacted with p-glycoprotein”.
